{"source": "ChEMBL document CHEMBL4418318", "about": "“Dynamin-1-like protein inhibitors” (2018)", "target": "Dynamin-1-like protein (Homo sapiens, UniProt O00429)", "sequence (O00429 whole entry)": "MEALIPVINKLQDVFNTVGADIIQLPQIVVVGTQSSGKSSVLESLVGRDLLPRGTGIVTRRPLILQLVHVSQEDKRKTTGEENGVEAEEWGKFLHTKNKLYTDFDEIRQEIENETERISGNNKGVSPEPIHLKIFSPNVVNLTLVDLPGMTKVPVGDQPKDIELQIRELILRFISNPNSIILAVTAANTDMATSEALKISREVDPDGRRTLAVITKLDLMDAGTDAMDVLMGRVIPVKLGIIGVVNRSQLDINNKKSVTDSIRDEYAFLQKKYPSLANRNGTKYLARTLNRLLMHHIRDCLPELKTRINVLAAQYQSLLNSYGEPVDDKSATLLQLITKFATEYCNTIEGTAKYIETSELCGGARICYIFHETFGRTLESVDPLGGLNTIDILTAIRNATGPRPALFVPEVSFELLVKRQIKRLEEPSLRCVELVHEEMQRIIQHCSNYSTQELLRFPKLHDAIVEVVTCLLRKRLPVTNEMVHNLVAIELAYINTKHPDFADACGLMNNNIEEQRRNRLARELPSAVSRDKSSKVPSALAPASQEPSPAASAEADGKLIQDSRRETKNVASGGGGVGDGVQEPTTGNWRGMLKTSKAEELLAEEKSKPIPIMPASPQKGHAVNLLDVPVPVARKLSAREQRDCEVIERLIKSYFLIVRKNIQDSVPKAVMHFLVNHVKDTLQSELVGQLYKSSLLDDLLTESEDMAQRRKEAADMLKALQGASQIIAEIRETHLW", "assay": "Inhibition of DRP1 (unknown origin) using GTP as substrate incubated for 20 mins by malachite green reagent based colorimetric assay", "data": [{"smiles": "O=C(O)c1ccc(NC(=O)c2cc(Br)cn2Cc2csc(N3CCCCC3)n2)cc1", "values": [{"measurement": "IC50", "value": "> 100", "unit": "µM"}]}]}
